Reference: patent US20250120967A1, “TYROSINE KINASES INHIBITORS AND USES THEREOF” (GREAT NOVEL THERAPEUTICS BIOTECH & MEDICALS CORPORATION, priority 2023, published 2025)
Where two headings read alike, the source gives them in different places.

Experiments:
Assay in all cases: Tyrosine kinase inhibition assay
Assay type in all cases: biochemical
EPHA4 = EPHA4 (Homo sapiens, UniProt P54764); settings: single concentration 1.0 μM, read-out: percent inhibition
Outline: (§1)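 Values are percent inhibition at 1.0 μM compound, with inhibition above 80% defined as a hit. Peptide substrate phosphorylation was assessed by Z′-LYTE at apparent-Km ATP in HEPES pH 7.5 buffer containing MgCl2, EGTA and BRIJ-35.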

FGFR1 = FGFR1 (Homo sapiens, UniProt P11362); settings: single concentration 1.0 μM, read-out: percent inhibition
Outline: as §1

[1] = target: PIK3CA/PIK3R1 (p110 alpha/p85 alpha) (Homo sapiens, UniProt P42336); settings: read-out: percent inhibition
Outline: as §1

JAK3 = target: T1, JAK3 (Homo sapiens, UniProt P52333); settings: single concentration 1.0 μM, read-out: percent inhibition
T1 sequence (P52333 1-1124): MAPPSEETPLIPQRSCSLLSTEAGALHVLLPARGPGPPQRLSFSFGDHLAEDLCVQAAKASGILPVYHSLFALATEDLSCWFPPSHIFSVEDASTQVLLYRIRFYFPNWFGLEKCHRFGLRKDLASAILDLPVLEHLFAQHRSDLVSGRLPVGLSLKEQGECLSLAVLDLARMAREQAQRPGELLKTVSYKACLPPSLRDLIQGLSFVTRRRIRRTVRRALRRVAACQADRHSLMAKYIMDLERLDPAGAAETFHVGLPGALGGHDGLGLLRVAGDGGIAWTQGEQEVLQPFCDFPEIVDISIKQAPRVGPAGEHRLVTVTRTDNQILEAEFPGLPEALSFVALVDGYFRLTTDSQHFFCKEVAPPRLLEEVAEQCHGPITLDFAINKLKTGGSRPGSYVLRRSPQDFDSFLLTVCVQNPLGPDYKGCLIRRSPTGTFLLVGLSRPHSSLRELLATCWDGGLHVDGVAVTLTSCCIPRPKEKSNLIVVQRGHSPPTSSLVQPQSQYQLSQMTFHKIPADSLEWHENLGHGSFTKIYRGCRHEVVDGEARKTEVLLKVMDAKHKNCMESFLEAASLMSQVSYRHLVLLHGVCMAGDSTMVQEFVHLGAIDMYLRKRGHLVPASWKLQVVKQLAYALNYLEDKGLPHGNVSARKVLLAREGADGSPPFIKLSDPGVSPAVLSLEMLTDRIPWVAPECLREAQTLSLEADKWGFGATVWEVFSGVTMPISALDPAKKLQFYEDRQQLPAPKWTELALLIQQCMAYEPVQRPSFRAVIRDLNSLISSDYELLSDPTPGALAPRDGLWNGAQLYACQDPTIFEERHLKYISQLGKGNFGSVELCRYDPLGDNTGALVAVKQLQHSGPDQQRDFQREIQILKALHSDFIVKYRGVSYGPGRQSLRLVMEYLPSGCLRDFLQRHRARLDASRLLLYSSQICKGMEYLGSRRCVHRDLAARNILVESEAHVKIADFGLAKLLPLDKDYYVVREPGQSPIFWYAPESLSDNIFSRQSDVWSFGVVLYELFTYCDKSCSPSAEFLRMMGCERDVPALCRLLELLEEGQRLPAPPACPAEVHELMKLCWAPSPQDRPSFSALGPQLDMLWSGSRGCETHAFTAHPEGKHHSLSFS
Outline: as §1

ALK = ALK (Homo sapiens, UniProt Q9UM73); settings: single concentration 1.0 μM, read-out: percent inhibition
Outline: as §1

MAPK8 (JNK1) = MAPK8 (JNK1) (Homo sapiens, UniProt P45983); settings: single concentration 1.0 μM, read-out: percent inhibition
Outline: as §1

AKT2 (PKB beta) = AKT2 (PKB beta) (Homo sapiens, UniProt P31751); settings: single concentration 1.0 μM, read-out: percent inhibition
Outline: as §1

[2] = target: PIK3CD/PIK3R1 (p110 delta/p85 alpha) (Homo sapiens, UniProt O00329); settings: single concentration 1.0 μM, read-out: percent inhibition
Outline: as §1

EPHA5 = EPHA5 (Homo sapiens, UniProt P54756); settings: single concentration 1.0 μM, read-out: percent inhibition
Outline: as §1

MUSK = target: T2, MUSK (Homo sapiens, UniProt O15146); settings: single concentration 1.0 μM, read-out: percent inhibition
T2 sequence (O15146 24-869): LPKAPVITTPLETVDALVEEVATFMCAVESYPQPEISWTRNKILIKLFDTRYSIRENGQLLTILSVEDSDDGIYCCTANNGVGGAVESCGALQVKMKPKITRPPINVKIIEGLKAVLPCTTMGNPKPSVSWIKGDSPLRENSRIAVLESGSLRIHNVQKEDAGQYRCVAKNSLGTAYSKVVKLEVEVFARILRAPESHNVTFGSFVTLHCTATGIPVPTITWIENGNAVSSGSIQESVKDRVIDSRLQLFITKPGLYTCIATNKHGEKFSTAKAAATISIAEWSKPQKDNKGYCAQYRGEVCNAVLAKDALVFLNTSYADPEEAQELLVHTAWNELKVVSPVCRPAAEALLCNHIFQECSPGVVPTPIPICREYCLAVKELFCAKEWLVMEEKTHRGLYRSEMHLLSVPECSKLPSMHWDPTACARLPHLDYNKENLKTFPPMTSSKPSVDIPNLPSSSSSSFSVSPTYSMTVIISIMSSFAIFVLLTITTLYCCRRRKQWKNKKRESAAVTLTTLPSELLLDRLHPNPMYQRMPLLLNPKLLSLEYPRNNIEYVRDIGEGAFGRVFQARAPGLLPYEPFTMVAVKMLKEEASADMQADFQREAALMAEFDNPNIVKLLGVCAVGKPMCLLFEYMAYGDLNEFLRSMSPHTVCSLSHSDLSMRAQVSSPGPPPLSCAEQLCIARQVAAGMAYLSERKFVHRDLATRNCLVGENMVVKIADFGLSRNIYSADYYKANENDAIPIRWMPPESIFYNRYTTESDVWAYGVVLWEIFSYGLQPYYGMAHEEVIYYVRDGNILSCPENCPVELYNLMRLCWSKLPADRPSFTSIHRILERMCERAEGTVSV
Outline: as §1

[3] = PIK3CA/PIK3R1 (p110 alpha/p85 alpha), single concentration 1.0 μM

PIK3CD/PIK3R1 (p110 delta/p85 alpha), sequence (O00329 whole entry): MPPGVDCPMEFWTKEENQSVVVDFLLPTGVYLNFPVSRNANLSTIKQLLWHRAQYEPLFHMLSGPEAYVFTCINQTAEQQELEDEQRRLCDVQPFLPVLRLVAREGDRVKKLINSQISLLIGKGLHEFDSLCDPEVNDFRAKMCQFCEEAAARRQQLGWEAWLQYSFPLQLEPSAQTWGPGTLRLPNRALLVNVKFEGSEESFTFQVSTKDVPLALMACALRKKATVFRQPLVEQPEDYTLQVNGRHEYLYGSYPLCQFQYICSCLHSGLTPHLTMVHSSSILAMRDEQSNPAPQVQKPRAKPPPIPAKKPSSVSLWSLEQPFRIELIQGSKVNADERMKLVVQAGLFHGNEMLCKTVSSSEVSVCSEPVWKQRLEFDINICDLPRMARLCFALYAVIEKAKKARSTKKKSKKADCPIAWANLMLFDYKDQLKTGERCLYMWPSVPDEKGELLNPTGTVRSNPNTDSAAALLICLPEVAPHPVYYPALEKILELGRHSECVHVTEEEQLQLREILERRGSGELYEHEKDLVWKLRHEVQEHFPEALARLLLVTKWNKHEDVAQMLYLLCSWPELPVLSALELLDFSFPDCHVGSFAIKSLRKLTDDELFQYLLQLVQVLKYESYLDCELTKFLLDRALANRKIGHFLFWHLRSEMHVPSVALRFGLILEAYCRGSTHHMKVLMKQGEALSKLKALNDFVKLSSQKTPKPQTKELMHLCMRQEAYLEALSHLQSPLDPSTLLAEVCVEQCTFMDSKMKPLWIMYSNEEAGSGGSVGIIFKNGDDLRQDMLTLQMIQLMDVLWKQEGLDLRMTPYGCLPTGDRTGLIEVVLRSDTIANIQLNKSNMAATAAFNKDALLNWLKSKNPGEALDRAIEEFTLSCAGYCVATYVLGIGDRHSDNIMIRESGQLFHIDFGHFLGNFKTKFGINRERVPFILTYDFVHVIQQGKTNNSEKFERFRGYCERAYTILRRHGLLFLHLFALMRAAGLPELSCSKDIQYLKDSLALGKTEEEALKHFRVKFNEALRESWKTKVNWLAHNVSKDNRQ
PIK3CD/PIK3R1 (p110 delta/p85 alpha), sequence (P27986 whole entry partner): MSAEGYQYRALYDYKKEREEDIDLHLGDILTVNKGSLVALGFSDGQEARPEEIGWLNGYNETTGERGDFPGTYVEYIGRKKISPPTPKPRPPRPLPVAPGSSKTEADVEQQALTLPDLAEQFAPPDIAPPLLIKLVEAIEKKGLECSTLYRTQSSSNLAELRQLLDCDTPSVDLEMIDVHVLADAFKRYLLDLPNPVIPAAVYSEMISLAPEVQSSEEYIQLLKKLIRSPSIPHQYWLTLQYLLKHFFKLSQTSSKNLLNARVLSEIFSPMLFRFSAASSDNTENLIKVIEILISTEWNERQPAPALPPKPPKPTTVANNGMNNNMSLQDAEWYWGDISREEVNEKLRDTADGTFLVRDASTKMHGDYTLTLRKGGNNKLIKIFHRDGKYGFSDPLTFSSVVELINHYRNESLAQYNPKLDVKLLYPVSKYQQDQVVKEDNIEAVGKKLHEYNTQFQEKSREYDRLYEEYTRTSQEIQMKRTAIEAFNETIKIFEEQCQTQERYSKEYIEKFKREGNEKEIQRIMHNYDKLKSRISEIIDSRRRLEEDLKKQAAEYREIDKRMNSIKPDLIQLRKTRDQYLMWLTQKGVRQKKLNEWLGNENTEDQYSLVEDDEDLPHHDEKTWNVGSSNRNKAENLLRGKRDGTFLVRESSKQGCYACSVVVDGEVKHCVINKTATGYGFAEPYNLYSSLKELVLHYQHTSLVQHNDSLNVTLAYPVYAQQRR
EPHA4, sequence (P54764 20-986): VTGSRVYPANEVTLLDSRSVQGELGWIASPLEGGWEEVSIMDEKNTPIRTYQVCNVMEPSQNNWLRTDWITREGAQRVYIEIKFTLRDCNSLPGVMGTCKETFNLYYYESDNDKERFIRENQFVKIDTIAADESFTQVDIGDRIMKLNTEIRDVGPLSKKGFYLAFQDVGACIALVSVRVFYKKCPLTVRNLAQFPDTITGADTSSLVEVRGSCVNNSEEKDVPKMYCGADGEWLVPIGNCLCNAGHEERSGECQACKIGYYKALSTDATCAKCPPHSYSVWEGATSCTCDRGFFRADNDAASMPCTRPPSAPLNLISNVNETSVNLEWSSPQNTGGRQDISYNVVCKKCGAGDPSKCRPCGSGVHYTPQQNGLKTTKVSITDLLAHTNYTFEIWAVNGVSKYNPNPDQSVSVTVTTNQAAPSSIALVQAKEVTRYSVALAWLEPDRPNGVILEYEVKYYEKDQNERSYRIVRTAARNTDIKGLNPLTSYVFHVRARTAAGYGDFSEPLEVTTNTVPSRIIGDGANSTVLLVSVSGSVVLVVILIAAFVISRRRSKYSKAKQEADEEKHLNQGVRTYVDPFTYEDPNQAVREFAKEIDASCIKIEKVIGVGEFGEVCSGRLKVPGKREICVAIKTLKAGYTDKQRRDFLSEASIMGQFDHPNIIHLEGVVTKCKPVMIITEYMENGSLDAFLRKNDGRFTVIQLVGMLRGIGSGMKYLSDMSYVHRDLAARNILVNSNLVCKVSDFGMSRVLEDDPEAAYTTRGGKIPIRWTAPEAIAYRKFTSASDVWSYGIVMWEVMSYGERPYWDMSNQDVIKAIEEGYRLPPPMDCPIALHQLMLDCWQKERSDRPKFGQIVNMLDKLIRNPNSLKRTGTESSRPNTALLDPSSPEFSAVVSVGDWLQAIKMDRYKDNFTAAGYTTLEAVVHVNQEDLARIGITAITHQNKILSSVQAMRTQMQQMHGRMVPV
FGFR1, sequence (P11362 22-822): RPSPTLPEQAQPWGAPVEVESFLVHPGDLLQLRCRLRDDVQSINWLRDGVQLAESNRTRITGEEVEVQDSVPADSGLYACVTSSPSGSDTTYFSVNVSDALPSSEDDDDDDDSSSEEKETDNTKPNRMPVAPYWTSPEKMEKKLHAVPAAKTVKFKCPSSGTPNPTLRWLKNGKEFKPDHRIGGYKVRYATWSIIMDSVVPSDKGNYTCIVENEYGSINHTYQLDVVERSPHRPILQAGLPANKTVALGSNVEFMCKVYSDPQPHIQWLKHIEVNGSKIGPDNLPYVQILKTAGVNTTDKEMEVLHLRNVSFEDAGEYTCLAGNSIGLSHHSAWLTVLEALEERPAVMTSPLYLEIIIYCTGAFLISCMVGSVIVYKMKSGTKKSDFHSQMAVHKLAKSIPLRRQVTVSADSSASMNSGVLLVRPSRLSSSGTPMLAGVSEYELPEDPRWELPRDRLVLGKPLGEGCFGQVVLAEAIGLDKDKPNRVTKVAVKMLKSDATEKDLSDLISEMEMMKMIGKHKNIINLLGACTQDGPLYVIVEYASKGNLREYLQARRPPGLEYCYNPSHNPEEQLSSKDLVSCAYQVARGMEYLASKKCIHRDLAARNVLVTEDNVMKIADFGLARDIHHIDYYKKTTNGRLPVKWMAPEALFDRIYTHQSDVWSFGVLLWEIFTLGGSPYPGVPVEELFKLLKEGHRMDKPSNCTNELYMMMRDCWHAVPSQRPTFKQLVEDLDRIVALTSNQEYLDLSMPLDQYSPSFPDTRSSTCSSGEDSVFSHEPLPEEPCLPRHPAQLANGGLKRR
PIK3CA/PIK3R1 (p110 alpha/p85 alpha), sequence (P42336 whole entry): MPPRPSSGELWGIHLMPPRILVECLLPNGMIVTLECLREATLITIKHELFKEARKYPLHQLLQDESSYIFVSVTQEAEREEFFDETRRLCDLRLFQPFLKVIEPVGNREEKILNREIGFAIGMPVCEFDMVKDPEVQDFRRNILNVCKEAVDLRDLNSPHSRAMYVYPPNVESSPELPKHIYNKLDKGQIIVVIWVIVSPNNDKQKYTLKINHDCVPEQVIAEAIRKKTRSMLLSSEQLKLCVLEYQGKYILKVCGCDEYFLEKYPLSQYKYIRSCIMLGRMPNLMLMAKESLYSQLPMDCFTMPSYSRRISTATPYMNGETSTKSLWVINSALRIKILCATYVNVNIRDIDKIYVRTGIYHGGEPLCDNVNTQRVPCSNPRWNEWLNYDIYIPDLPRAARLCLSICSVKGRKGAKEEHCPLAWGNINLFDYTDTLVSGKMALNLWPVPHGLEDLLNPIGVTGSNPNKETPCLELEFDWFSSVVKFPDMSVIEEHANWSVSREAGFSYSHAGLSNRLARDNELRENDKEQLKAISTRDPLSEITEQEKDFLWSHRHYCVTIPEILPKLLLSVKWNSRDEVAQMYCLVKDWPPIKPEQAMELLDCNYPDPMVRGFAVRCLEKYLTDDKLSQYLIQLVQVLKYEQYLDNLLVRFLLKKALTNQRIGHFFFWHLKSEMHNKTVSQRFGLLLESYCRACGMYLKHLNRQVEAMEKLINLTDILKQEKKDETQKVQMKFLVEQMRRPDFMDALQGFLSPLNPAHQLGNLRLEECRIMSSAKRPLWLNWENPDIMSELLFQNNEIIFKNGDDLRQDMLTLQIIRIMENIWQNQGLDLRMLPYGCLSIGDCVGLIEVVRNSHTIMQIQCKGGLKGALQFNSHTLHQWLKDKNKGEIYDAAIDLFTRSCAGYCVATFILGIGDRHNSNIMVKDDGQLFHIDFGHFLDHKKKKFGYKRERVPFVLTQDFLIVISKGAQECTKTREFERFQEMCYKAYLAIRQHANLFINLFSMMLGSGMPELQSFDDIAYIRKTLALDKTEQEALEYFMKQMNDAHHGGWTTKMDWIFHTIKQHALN
PIK3CA/PIK3R1 (p110 alpha/p85 alpha), sequence (P27986 whole entry partner): as the sequence (P27986 whole entry partner) above
MAPK8 (JNK1), sequence (P45983 whole entry): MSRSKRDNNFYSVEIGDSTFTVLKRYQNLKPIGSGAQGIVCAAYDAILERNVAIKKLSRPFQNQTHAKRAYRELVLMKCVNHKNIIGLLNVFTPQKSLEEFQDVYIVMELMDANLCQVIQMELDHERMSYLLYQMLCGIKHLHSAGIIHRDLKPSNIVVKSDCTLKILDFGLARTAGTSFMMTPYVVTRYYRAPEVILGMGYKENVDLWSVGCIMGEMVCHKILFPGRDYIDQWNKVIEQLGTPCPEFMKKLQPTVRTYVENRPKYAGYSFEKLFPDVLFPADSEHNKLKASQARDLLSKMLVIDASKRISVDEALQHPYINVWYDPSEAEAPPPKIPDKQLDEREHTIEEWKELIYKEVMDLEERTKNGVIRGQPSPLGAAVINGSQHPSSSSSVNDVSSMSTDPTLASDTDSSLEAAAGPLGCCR

Row | SMILES | inhibition at 1 µM (EPHA4) | inhibition at 1 µM (FGFR1) | inhibition at 1 µM [1] | inhibition at 1 µM (JAK3) | inhibition at 1 µM (ALK) | inhibition at 1 µM (MAPK8 (JNK1)) | inhibition at 1 µM (AKT2 (PKB beta)) | inhibition at 1 µM [2] | inhibition at 1 µM (EPHA5) | inhibition at 1 µM (MUSK) | inhibition at 1 µM [1, 3]
1 | COc1cc2nccc(Oc3ccc(NC(=O)C4(C(=O)Nc5ccc(F)cc5)CC4)cc3)c2cc1OC [Cabozantinib, reference compound] | 100% | 12% | 0% | 9% | 28% | -2% | 17% | -1% | 100% | 92% | –
2 | COc1cc2nccc(Oc3ccc(NC(=O)C4(NC(=O)c5ccc(F)cc5)CC4)cc3F)c2cc1OC [Cbo-02, N-(1-((4-((6,7-diMethoxyquinolin-4-yl)oxy)-3-fluorophenyl)carbamoyl)cyclopropyl)-4-fluorobenzamide] | 79% | 3% | – | 11% | 20% | 5% | 10% | -6% | 41% | 31% | -6%
3 | COc1cc2nccc(Oc3ccc(NC(=O)C4(NC(=O)c5ccc(F)cc5)CC4)cc3F)c2cc1Oc1ccc(N)cc1F [Cbo-10] | 91% | 1% | – | 9% | 36% | 32% | 5% | 12% | 87% | 68% | 10%
4 | COc1cc2nccc(Oc3ccc(NC(=O)C4(NC(=O)c5ccc(F)cc5)CC4)cc3F)c2cc1Oc1c(F)cc(N)cc1F [Cbo-14] | 89% | 5% | – | 21% | 32% | 41% | 10% | 16% | 92% | 76% | 3%
5 | COc1cc2nccc(Oc3ccc(NC(=O)C4(C(=O)Nc5ccc(F)cc5)CC4)cc3F)c2cc1Oc1ccc(N)cc1F [Cbo-23] | 100% | 27% | – | 17% | 78% | -2% | 0% | 2% | 99% | 85% | 4%
